The source of these data is patent US20260048047A1, “SMALL-MOLECULE ACTIVATORS OF MYCOBACTERIUM TUBERCULOSIS ADENYLYL CYCLASE” (priority 2022, published 2026).

Converted amounts (≈) assume the structure as drawn.

In one series the target is hERG (Homo sapiens, UniProt Q12809). Put plainly: in vitro. Format: biochemical. The following applies: Table S2.
The nature of another series: Extraction ratio, human. Particulars: Table S2.
Another series can be described thus: Extraction ratio, mouse. The following applies: Table S2.
A further series can be described thus: Solubility at pH 6.8. Particulars: pH 6.8, aqueous buffer.
Series [1] in a line: Mouse plasma protein binding.

Chain of hERG (Q12809 whole entry): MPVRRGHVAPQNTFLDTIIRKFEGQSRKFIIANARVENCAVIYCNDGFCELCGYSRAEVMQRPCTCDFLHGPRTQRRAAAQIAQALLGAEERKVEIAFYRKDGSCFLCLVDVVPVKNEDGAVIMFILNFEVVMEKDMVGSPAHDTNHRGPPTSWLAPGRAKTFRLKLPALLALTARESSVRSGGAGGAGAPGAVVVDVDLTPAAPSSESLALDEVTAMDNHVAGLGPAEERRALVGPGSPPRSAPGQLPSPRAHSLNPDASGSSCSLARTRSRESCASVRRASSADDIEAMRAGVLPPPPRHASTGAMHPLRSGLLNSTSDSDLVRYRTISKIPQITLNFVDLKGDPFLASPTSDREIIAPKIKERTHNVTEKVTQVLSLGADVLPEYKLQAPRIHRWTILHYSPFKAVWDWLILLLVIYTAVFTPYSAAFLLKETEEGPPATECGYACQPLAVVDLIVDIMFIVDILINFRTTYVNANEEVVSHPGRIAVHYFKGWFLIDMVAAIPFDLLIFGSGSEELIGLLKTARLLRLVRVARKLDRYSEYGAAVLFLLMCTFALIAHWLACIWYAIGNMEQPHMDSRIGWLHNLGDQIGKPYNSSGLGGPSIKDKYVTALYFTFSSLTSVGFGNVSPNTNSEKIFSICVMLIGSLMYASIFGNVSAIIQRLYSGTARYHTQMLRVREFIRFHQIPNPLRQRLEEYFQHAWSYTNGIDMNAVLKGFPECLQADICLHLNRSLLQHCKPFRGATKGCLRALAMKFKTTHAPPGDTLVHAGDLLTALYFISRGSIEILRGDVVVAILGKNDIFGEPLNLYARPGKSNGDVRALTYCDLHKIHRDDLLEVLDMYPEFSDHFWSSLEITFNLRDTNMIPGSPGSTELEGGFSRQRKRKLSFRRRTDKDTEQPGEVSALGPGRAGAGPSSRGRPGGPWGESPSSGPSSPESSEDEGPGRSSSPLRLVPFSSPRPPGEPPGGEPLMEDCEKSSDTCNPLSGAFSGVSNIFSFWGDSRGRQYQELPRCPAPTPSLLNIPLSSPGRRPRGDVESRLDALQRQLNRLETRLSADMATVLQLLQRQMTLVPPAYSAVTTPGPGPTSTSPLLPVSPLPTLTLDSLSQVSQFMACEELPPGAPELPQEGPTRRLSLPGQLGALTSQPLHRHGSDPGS

As to `Cn1ncnc1CC(=O)N1[C@@H]2CC(c3nc(-c4ccc(Cl)c(Cl)c4)no3)C[C@H]1C2` (stereo partly drawn) [drawing 4], the midpoint of inhibition against hERG, the IC50, lay at 11.8 µM. In addition, the fraction unbound is less than 0.0001 in “Caseum binding” and 0.022 in series [1]. For the same compound, the “ER mouse/human: human” value in “Extraction ratio, human” is listed as <0.3/<0.3. The “ER mouse/human: mouse” value in “Extraction ratio, mouse” is reported as <0.3/<0.3. Besides, the solubility in the series “Solubility at pH 6.8” was determined as 94 µM (≈ 40.7 µg/mL).
